# Laboratory results from ChEMBL document CHEMBL3808345, “Discovery of triazolopyridine GS-458967, a late sodium current inhibitor (Late INai) of the cardiac NaV 1.5 channel with improved efficacy and potency relative to ranolazine” (Bioorg Med Chem Lett, 2016).
# How the values were obtained:
# [1] = Clearance in iv dosed rat; format: ADME, organism-based; details: in vivo
# [2] = Clearance in iv dosed cynomolgus monkey; format: ADME, organism-based, Macaca fascicularis; details: in vivo
# [3] = Oral bioavailability in rat; format: ADME, organism-based; details: in vivo
# [4] = Oral bioavailability in cynomolgus monkey; format: ADME, organism-based, Macaca fascicularis; details: in vivo
# [5] = Lipophilicity, logD of the compound; format: physicochemical; details: octanol/water
# [6] = Aqueous solubility of the compound in HCL at pH 2.2; format: physicochemical
# [7] = Aqueous solubility of the compound in PBS at pH 7.6; format: physicochemical
# [8] = Stability in human liver microsomes; format: ADME
# [9] = Stability in rat liver microsomes; format: ADME
# [10] = Stability in dog liver microsomes; format: ADME, Canis lupus familiaris
# [11] = Permeability from apical to basolateral side in human Caco2 cells at 1 uM; format: ADME, cell-based; details: Caco-2, read-out: permeability
# [12] = Permeability from apical to basolateral side in human Caco2 cells at 10 uM; format: ADME, cell-based; details: Caco-2, read-out: permeability
# [13] = Permeability from basolateral to apical side in human Caco2 cells at 1 uM; format: ADME, cell-based; details: Caco-2, read-out: permeability
# [14] = Permeability from basolateral to apical side in human Caco2 cells at 10 uM; format: ADME, cell-based; details: Caco-2, read-out: permeability
# [15] = AUC (0 to infinity) in po dosed rat; format: ADME, organism-based; set-up: time infinity, route oral; details: in vivo
# [16] = AUC (0 to infinity) in po dosed cynomolgus monkey; format: ADME, organism-based, Macaca fascicularis; set-up: time infinity, route oral; details: in vivo
# [17] = Cmax in po dosed rat; format: ADME, organism-based; set-up: route oral; details: in vivo
# [18] = Cmax in po dosed cynomolgus monkey; format: ADME, organism-based, Macaca fascicularis; set-up: route oral; details: in vivo
# [19] = Tmax in po dosed rat; format: ADME, organism-based; details: in vivo
# [20] = Tmax in po dosed cynomolgus monkey; format: ADME, organism-based, Macaca fascicularis; details: in vivo
# [21] = Volume of distribution at steady state in iv dosed rat; format: ADME, organism-based; details: in vivo, read-out: Vdss
# [22] = Volume of distribution at steady state in iv dosed cynomolgus monkey; format: ADME, organism-based, Macaca fascicularis; details: in vivo, read-out: Vdss
smiles,measurement,setting,value
FC(F)(F)Oc1ccc(-c2ccc3nnc(C(F)(F)F)n3c2)cc1,clearance,[1],3.22 mL/min/kg
same,clearance,[2],0.217 mL/min/kg
same,bioavailability,[3],105%
same,bioavailability,[4],83%
same,logD,[5],3.38
same,solubility,[6],6 µM
same,solubility,[7],4.7 µM
same,half-life,[8],> 6.58 h
same,half-life,[9],3.82 h
same,half-life,[10],1.17 h
same,Papp A→B at 1 µM,[11],41.2 ×10⁻⁶ cm/s
same,Papp A→B at 10 µM,[12],27.9 ×10⁻⁶ cm/s
same,Papp B→A at 1 µM,[13],44 ×10⁻⁶ cm/s
same,Papp B→A at 10 µM,[14],35.2 ×10⁻⁶ cm/s
same,AUC(0-inf),[15],5.7 µM·h
same,AUC(0-inf),[16],76.1 µM·h
same,Cmax,[17],397 nM
same,Cmax,[18],1480 nM
same,Tmax,[19],2.7 h
same,Tmax,[20],6 h
same,Vd,[21],3.4 L
same,Vd,[22],0.6 L
